Values of other authors as cited in US7160560B2, “Skin-care composition” (L'Oreal S.A., priority 2003, dated 2007).

For CC1=N[C@H](C(=O)O)CCN1 [ectoin, (s)-1,4,5,6-tetrahydro-2-methyl-4-pyrimidinecarboxylic acid], the “UVA radiation-induced formation of mitochondrial DNA mutations” value (human dermal fibroblasts) is listed as “inhibits” and the “signaling cascade brought about by UVA-radiation” value (human keratinocytes) is listed as “inhibits”.
